According to PubChem BioAssay (NCI):
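48-hour exposure; five concentrations; linearly interpolated endpoints. At the TGI there is no net growth.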

Legend:
Experiment in all cases: NCI-60 cell line screen, 48 h
A498 renal = system: A498 renal
786-0 renal = system: 786-0 renal
LOX IMVI melanoma = system: LOX IMVI melanoma
A549 NSCLC = system: A549 NSCLC
OVCAR-3 ovarian = system: OVCAR-3 ovarian
HCT-15 colon = system: HCT-15 colon
SW-620 colon = system: SW-620 colon
OVCAR-8 ovarian = system: OVCAR-8 ovarian
SK-MEL-28 melanoma = system: SK-MEL-28 melanoma
HL-60(TB) leukemia = system: HL-60(TB) leukemia
SR leukemia = system: SR leukemia
BT-549 breast = system: BT-549 breast
CCRF-CEM leukemia = system: CCRF-CEM leukemia
MCF7 breast = system: MCF7 breast
UO-31 renal = system: UO-31 renal
MDA-MB-435 = system: MDA-MB-435
UACC-257 melanoma = system: UACC-257 melanoma
K-562 leukemia = system: K-562 leukemia
SK-MEL-5 melanoma = system: SK-MEL-5 melanoma
M14 melanoma = system: M14 melanoma

NC(=O)c1cc2ccc(O)cc2o/c1=N/NC(=O)c1ccccc1
TGI (A498 renal): > 100 µM
TGI (786-0 renal): > 100 µM
TGI (LOX IMVI melanoma): > 100 µM
TGI (A549 NSCLC): > 100 µM
TGI (OVCAR-3 ovarian): > 100 µM
TGI (HCT-15 colon): > 100 µM
TGI (SW-620 colon): > 100 µM
TGI (OVCAR-8 ovarian): > 100 µM
TGI (SK-MEL-28 melanoma): > 100 µM
TGI (HL-60(TB) leukemia): > 100 µM
TGI (SR leukemia): > 100 µM
TGI (BT-549 breast): > 100 µM
TGI (CCRF-CEM leukemia): > 100 µM
TGI (MCF7 breast): > 100 µM
TGI (UO-31 renal): > 100 µM
TGI (MDA-MB-435): > 100 µM
TGI (UACC-257 melanoma): > 100 µM
TGI (K-562 leukemia): > 100 µM
TGI (SK-MEL-5 melanoma): > 100 µM
TGI (M14 melanoma): > 100 µM

COc1cc(S(=O)(=O)Nc2nc(-c3ccc(N4C(=O)/C(=C/C=C/c5ccccc5)N=C4c4ccccc4)cc3)cs2)ccc1Cl
TGI (A498 renal): > 100 µM
TGI (786-0 renal): > 100 µM
TGI (LOX IMVI melanoma): > 100 µM
TGI (A549 NSCLC): > 100 µM
TGI (OVCAR-3 ovarian): > 100 µM
TGI (HCT-15 colon): > 100 µM
TGI (SW-620 colon): > 100 µM
TGI (OVCAR-8 ovarian): > 100 µM
TGI (SK-MEL-28 melanoma): > 100 µM
TGI (HL-60(TB) leukemia): > 100 µM
TGI (SR leukemia): > 100 µM
TGI (BT-549 breast): 94 µM
TGI (CCRF-CEM leukemia): > 100 µM
TGI (MCF7 breast): > 100 µM
TGI (UO-31 renal): > 100 µM
TGI (MDA-MB-435): > 100 µM
TGI (UACC-257 melanoma): > 100 µM
TGI (K-562 leukemia): > 100 µM
TGI (SK-MEL-5 melanoma): > 100 µM
TGI (M14 melanoma): > 100 µM

COc1ccc(S(=O)(=O)NC(CCC(=O)NN)C(=O)NN)cc1 (stereo not given)
TGI (A498 renal): > 100 µM
TGI (786-0 renal): > 100 µM
TGI (LOX IMVI melanoma): > 100 µM
TGI (A549 NSCLC): > 100 µM
TGI (OVCAR-3 ovarian): > 100 µM
TGI (HCT-15 colon): > 100 µM
TGI (SW-620 colon): > 100 µM
TGI (OVCAR-8 ovarian): > 100 µM
TGI (SK-MEL-28 melanoma): > 100 µM
TGI (HL-60(TB) leukemia): > 100 µM
TGI (SR leukemia): > 100 µM
TGI (BT-549 breast): > 100 µM
TGI (CCRF-CEM leukemia): > 100 µM
TGI (MCF7 breast): > 100 µM
TGI (UO-31 renal): > 100 µM
TGI (MDA-MB-435): > 100 µM
TGI (UACC-257 melanoma): > 100 µM
TGI (K-562 leukemia): > 100 µM
TGI (SK-MEL-5 melanoma): > 100 µM
TGI (M14 melanoma): > 100 µM
